Source: patent US7432392B2, “Ester derivatives and medical use thereof” (Japan Tobacco Inc., priority 2003, dated 2008)
pIC50: −log10 of the molar value.

What was measured:
[1] = target: T1, Microsomal triglyceride transfer protein (MTP) from bovine liver (Bos taurus, UniProt P55156); test: Inhibition of interliposomal triglyceride (TG) transfer activity by MTP; assay type: biochemical; conditions: MTP-mediated TG transfer between donor and acceptor liposomes, 37° C., one hour
T1 construct: the purified MTP was used for the test; from tissue; host or cells: bovine liver
T1 sequence (P55156 12-887): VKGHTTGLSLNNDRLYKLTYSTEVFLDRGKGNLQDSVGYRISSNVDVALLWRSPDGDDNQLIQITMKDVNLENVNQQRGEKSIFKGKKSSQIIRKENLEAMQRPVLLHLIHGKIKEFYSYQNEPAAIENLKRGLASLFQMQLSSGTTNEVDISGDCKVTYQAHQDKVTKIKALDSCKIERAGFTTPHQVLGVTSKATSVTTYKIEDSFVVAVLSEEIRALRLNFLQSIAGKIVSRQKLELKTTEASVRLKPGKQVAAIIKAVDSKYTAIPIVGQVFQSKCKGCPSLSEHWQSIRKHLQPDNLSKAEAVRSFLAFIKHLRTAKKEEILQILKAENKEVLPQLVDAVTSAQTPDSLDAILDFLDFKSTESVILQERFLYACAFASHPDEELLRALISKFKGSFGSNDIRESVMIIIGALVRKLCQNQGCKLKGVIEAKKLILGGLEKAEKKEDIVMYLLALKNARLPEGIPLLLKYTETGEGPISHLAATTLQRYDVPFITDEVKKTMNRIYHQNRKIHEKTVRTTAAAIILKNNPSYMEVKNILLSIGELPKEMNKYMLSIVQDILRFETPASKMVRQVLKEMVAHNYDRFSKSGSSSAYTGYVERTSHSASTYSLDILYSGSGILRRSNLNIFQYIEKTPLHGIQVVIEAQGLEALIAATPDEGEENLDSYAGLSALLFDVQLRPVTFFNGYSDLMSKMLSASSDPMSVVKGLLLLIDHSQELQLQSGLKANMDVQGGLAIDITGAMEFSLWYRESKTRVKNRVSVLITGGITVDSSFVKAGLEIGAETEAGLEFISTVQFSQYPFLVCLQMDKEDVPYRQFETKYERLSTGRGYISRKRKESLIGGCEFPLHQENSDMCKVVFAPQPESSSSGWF
T1 sequence (P05307 21-510 partner): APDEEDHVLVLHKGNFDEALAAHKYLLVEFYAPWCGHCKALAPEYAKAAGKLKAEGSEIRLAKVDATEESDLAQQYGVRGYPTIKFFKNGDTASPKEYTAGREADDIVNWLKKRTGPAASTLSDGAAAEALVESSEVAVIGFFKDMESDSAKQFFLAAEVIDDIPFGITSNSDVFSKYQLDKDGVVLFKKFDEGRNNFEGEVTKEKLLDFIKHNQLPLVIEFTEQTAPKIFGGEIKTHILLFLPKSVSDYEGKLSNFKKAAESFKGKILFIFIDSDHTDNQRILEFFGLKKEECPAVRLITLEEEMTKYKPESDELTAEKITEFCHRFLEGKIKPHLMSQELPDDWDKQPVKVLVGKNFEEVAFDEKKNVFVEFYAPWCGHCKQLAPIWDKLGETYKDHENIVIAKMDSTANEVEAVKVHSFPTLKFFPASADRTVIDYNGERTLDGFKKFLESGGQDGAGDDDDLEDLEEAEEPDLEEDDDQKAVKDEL
Procedure, shortened: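 Partially purified bovine liver MTP (DEAE chromatography) was incubated 1 h at 37° C with ^14C-triolein donor SUV liposomes and unlabeled acceptor liposomes in pH 7.4 Tris buffer with 0.5% BSA. Donor was removed with DEAE cellulose and acceptor radioactivity counted. IC50 came from blank-corrected inhibition relative to DMSO.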

[2] = Metabolic stability test in liver S9 (human); assay type: in vitro ADME; conditions: Human liver S9, 2 mg protein/mL, 37° C.
Experimental: (§1) Human and hamster liver S9 (final concentration: 2 mg protein/mL), and human and hamster small intestine S9 (final concentration: 2 mg protein/mL) were each suspended in 100 mM potassium phosphate buffer (pH 7.4, containing β-nicotinamide adenine dinucleotide phosphate: 1.3 mM, D-glucose-6-phosphate: 3.3 mM, magnesium chloride: 3.3 mM, and glucose-6-phosphate dehydrogenase: 0.4 U/mL). The suspensions were mixed with a solution of a sample (Example 1) in DMSO. The solutions were incubated at 37° C. for 0, 10 and 60 minutes, and an organic solvent was added thereto. The solutions were centrifuged, and the concentration of the sample (unchanged form) in the supernatant was determined by high performance liquid chromatography/mass spectrometry (LC/MS). Based on the data obtained, remaining rate (%) was calculated according to the following equation. Remaining rate(%)=amount of sample 10 or 60 minutes after incubation/amount of sample at zero time after incubation×100

[3] = Metabolic stability test in small intestine S9 (hamster); assay type: in vitro ADME; conditions: Hamster small intestine S9, 2 mg protein/mL, 37° C.
Experimental: as §1

CCOC(=O)C(COC(=O)Cc1ccc(NC(=O)c2ccccc2-c2ccc(C(F)(F)F)cc2)c(OC(C)=O)c1)(C(=O)OCC)c1ccccc1 [Example 1, 2-(2-{3-acetoxy-4-[(4′-trifluoromethyl-biphenyl-2-carbonyl)amino]phenyl}acetoxymethyl)-2-phenylmalonic acid diethyl ester]
pIC50 [1]: > 8.00 | Remaining rate (%) after 10 minutes ([2]; 10 minutes): 6.2% | Remaining rate (%) after 60 minutes ([2]; 60 minutes): 1.8% | Remaining rate (%) after 10 minutes ([3]; 10 minutes): 4.1% | Remaining rate (%) after 60 minutes ([3]; 60 minutes): 0.0%
